From patent US11607398B2, “Chlorogenic acid composition and method of weight management” (Vidya Herbs, Inc., priority 2015, dated 2023)
Several values for one entry are separate records, joined by “and”; a condition that tells them apart may be missing. Equal values may be shown once.

Assays:
calf thymus DNA = test: Protective effect on DNA scission induced by hydroxyl radical (TBA assay); assay type: biochemical
Procedure: In this assay hydroxyl radicals are typically generated within a mixture of ascorbic acid, H2O2 and Fe3+-ethylenediaminetetracetic acid (EDTA); those radicals that are not scavenged by other components of the reaction mixture will eventually attack deoxyribose, thus degrading it into a series of fragments.
The experiment was conducted using calf thymus DNA. Briefly, sample was dissolved in ethanol at 1 mg/mL. 50 μl of different concentration of sample was then separately taken into mini tubes followed by addition of 400 μL of phosphate buffer (0.2 mol/L, pH 7.4). Subsequently, 50 μL DNA sodium, 50 μL H2O2, 50 μL FeCl3 and 50 μL Na2EDTA (1 mmol/L) were added. The reaction was initiated by adding 50 μL ascorbic acid (18 mmol/L) and the total volume of the reaction mixture was adjusted to 800 μL with buffer. After incubation in a water bath at 55° C. for 20 min, the reaction was terminated by adding 250 μL TCA.
The color was then developed by addition of 150 μL of TBA and heating in an oven at 105° C. for 15 min. The mixture was cooled and absorbance was measured at 532 nm against the buffer (as blank). The percent of protection against DNA damage is expressed Protective effect %=(1−A/A0)×100 Where A0 is the absorbance of the mixture without sample, and A is the absorbance of the mixture with sample. Results

[1] = tested on: Salmonella typhimurium TA 100; assay type: cell-based; details: TA 100, +s9, positive control, concentration not given
[2] = tested on: Salmonella typhimurium TA 98; test: Ames Salmonella mutagenicity test (preincubation method), strain TA 98; assay type: cell-based; details: TA 98, +s9, positive control, concentration not given
[3] = DPPH radical scavenging assay; assay type: biochemical
Procedure: The free radical scavenging capacity of the test sample was determined using DPPH scavenging assay. DPPH solution was prepared in 95% methanol. Freshly prepared DPPH solution was taken in test tubes and different concentration of test samples were added and incubated for 20 min. The absorbance was read at 517 nm using a spectrophotometer. Blank was prepared containing the same volume of reaction mixture without any tested samples. The percentage of scavenging was calculated using the formula: % Scavenging=Ac−As/Ac×100 Where AC was the absorbance of the control (blank) and AS was the absorbance in the presence of the composition (Braca et al., 2001).

[4] = Superoxide anion scavenging activity (NBT/NADH/PMS); assay type: biochemical
Procedure: Prepared all the solutions in this experiment using phosphate buffer (pH 7.4). Added 1 ml of NBT (156 μM), 1 ml of NADH (468 μM) and 3 ml of test samples to all test tubes. The reaction was started by adding 100 ml of PMS (60 μM) and incubated the mixture at 25° C. for 5 min followed by measurement of absorbance at 560 nm. The percentage of scavenging was calculated using formula: % Scavenging=Ac−As/Ac×100 Where AC was the absorbance of the control (blank) and As was the absorbance in the presence of the composition.

[5] = Reducing power assay (Fe3+ to Fe2+); assay type: biochemical; set-up: Reducing power activity: unit not given here

## COc1ccc(O)c(C(C)(C)C)c1 [BHA]
Calf thymus DNA; 10 μg/ml
  % protective effect (DNA damage): 15.79 ± 0.89%
Calf thymus DNA; 20 μg/ml
  % protective effect (DNA damage): 19.25 ± 1.09%
Calf thymus DNA; 40 μg/ml
  % protective effect (DNA damage): 32.50 ± 2.12%
Calf thymus DNA; 60 μg/ml
  % protective effect (DNA damage): 39.16 ± 0.33%
Calf thymus DNA; 80 μg/ml
  % protective effect (DNA damage): 43.04 ± 0.29%
Calf thymus DNA; 100 μg/ml
  % protective effect (DNA damage): 51.37% and 51.37 ± 4.06%

## Nc1ccc2cc3ccccc3cc2c1 [PC 2AF, 2-aminoanthracene]
[1]
  Revertant colonies/plate (Mean n = 2 ± S.D.): 2737 ± 4.9 Revertant colonies/plate
[2]
  Revertant colonies/plate (Mean n = 2 ± S.D.): 1560 ± 3.53 Revertant colonies/plate

## O=C1O[C@H]([C@@H](O)CO)C(O)=C1O [Ascorbic acid]
[3]; 20 μg/ml
  % inhibition (DPPH scavenging activity): 83.21%
  Absorbance @517 nm: 0.046
[3]; 40 μg/ml
  % inhibition (DPPH scavenging activity): 90.88%
  Absorbance @517 nm: 0.025
[3]; 60 μg/ml
  % inhibition (DPPH scavenging activity): 94.53%
  Absorbance @517 nm: 0.015
[3]; 80 μg/ml
  % inhibition (DPPH scavenging activity): 94.89%
  Absorbance @517 nm: 0.014
[3]; 100 μg/ml
  % inhibition (DPPH scavenging activity): 96.72%
  Absorbance @517 nm: 0.009
[3]; 100 μg/ml, listed as ascorbic acid
  % inhibition (DPPH scavenging activity): 96.71%
[4]; 20 μg/ml
  % inhibition (superoxide scavenging activity): 84.80%
  Absorbance @560 nm: 0.038
[4]; 40 μg/ml
  % inhibition (superoxide scavenging activity): 85.20%
  Absorbance @560 nm: 0.037
[4]; 60 μg/ml
  % inhibition (superoxide scavenging activity): 88.40%
  Absorbance @560 nm: 0.029
[4]; 80 μg/ml
  % inhibition (superoxide scavenging activity): 89.20%
  Absorbance @560 nm: 0.027
[4]; 100 μg/ml
  % inhibition (superoxide scavenging activity): 89.60%
  Absorbance @560 nm: 0.026
[5]; 100 μg/ml
  Absorbance (reductive capability, 700 nm): 0.970
[5]; 20 (Table 7; range 20-100 μg/ml per text)
  Reducing power activity: 15.46
[5]; 40 (Table 7)
  Reducing power activity: 16.60
[5]; 60 (Table 7)
  Reducing power activity: 16.61
[5]; 80 (Table 7)
  Reducing power activity: 17.33
[5]; 100 (Table 7)
  Reducing power activity: 18.59
